This passage reports EC50 results from patent US9233961B2, “Compounds and compositions for the treatment of parasitic diseases” (Novartis AG, priority 2013, dated 2016).

Assay [1] deals with Trypanosoma cruzi amastigotes (Tulahuen strain) cultured in 3T3 fibroblast cells. In words: Assay for proliferation of kinetoplastid parasite Trypanosoma cruzi. The note with it: 144 h. Format: cell-based. The text has this: Assay for Proliferation of Kinetoplastid Parasite Trypanosoma cruzi.
Compounds of the invention can be assayed to measure their capacity to inhibit proliferation of kinetoplastid parasite Trypanosoma cruzi. The screening procedure is for identifying compounds with inhibitor activity against Trypanosoma cruzi amastigotes cultured in 3T3 fibroblast cells. The assay is done using the mammalian stage (amastigotes) of T. cruzi that replicates in the intracellular space of host cells. The host cells are initially infected with the culture-derived trypomastigotes that rapidly invade and then divide as amastigotes. The protocol uses the Tulahuen strain of T. cruzi that has been engineered to express the E. coli beta-galactosidase gene (Lac-Z) (Antimicr. Agents Chemoth. 40:2592, 1996). This allows for a colorimetric readout by using the substrate CPRG and an absorbance plate reader.
3T3 fibroblast cells are re-suspended in RPMI-1640 medium without phenol red medium supplemented with 10% FBS (heat inactivated), 100 μg/ml penicillin, and 100 μg/ml streptomycin. Forty μL of suspension (1,000 cells) is dispensed into 384-well plates and incubated overnight at 37° C. temperature and in atmosphere containing 5% CO2. The following day, 100 nL of compounds of the invention in DMSO are added to plate wells containing 3T3 cells. At the same time control compounds (benznidazole and nifurtimox) and DMSO are added to plates to serve as the positive and negative controls, respectively. After that, 10 μL of media containing 10,000 T. cruzi trypomastigotes are added to each plate well and plates are placed back into incubators. After 6 day incubation, 10 μL of reagent solution (0.6 mM CPRG, 0.6% NP-40 in PBS) is added to plates and incubated at room temperature for 2 hours. Absorbance is then measured on SpectraMax Gemini […] to determine relative number of T. cruzi cells present in each plate well. The percentage inhibition of 50%, EC50, is calculated for each compound. […] Typically, the EC50 is 10 μM or less.

Assay [2] concerns Leishmania donovani axenic amastigote parasites. Put plainly: Leishmania donovani axenic amastigote proliferation assay. It counts as cell-based. The following applies: read-out: L. donovani amastigotes EC50. The method, boiled down:
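L. donovani axenic amastigotes (9600/well) in RPMI 1640 with 20% heat-inactivated FBS, folic acid, adenosine, glucose and 25 mM MES, pH 5.5, were incubated with compounds for 2 days at 37 °C, 5% CO2. Viability read by CellTiter-Glo luminescence; EC50 calculated.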

Assay [3] relates to Trypanosoma brucei Lister 427 strain bloodstream form. In words: Assay for proliferation of kinetoplastid parasite Trypanosoma brucei. It counts as cell-based. A digest of the protocol:
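Bloodstream-form T. brucei Lister 427 in HMI-9 medium was exposed to compound (DMSO vehicle) for 48 hours at 37° C, 5% CO2. Parasite growth was read as ATP by CellTiter-Glo luminescence, with EC50 calculated from percent inhibition.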

Assay [4] deals with L. donovani HU3 strain in mouse peritoneal macrophages. In words: Assay for proliferation of Leishmania parasites in mouse peritoneal macrophages. Format: cell-based, Leishmania donovani. The note with it: Leishmania donovani, Peritoneal macrophage, read-out: L. donavani Macrophage EC50. The method, boiled down:
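BALB/c peritoneal macrophages infected 24 h with L. donovani HU3 amastigotes taken from spleens of mice infected 9–11 weeks, then treated with compound for 5 days at 37° C, 5% CO2. Parasite nuclei counted by SYBR Green imaging after fixation; EC50 from percentage inhibition.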

The mark [5] stands for this setting: Tulahuen amastigotes in 3T3 fibroblast cells, 6 day incubation, read-out: T cruzi EC50.
Setting [6] is: Lister 427 bloodstream form, 48 hours, read-out: T. brucei EC50.
Where [7] appears, read: T. brucei Lister 427, 48 hours, Cell Titer Glo, read-out: EC50.

Read-outs that look alike come from different tables or passages of the source.

Turning to `Cc1cnc2nc(-c3cc(NC(=O)c4ccc[nH]4)ccc3Cl)[nH]c2c1` [Compound 100], the EC50 (in general, the concentration giving half of the maximal effect) stood at 2170 nM in assay [1] (setting [5]), 6.3 µM in assay [2] (axenic amastigotes in vitro), 1420 nM in assay [3] (setting [6]) and 6.4 µM in assay [4].
With `NC(=O)c1ccc(-c2cnc3nc(-c4cc(NC(=O)c5ccco5)ccc4Cl)[nH]c3c2)cc1` [Compound 19, N-{3-[6-(4-carbamoylphenyl)-1H-imidazo[4,5-b]pyridin-2-yl]-4-chlorophenyl}furan-2-carboxamide], the EC50 in assay [1] (setting [5]) was above 20000 nM; in assay [2] (axenic amastigotes in vitro), 0.165 µM; in assay [3] (setting [6]) it was 5.8 nM; in assay [3] (setting [7]) it was 6 nM; in assay [4], above 50 µM.
On to `Cc1cnc2nc(-c3cc(NC(=O)N(C)C4CCOC4)ccc3Cl)[nH]c2c1` (stereo not drawn) [Compound 232], for which the EC50 is above 20000 nM in assay [1] (setting [5]), above 25 µM in assay [2] (axenic amastigotes in vitro), above 25000 nM in assay [3] (setting [6]) and above 50 µM in assay [4].
For `Cc1cnc2nc(-c3cc(NC(=O)c4cccc(Cl)c4)ccc3Cl)[nH]c2c1` [Compound 89] the same measures were 175 nM, 3.7 µM, 260 nM and 9.2 µM.
For `Cc1cnc2nc(-c3cc(NC(=O)c4ccc(Cl)s4)ccc3Cl)[nH]c2c1` [Compound 152] the same measures were above 11500 nM, above 25 µM, 5600 nM and 4.5 µM.
For `CON(C)C(=O)Nc1ccc(Cl)c(-c2nc3ncc(C)cc3[nH]2)c1` [Compound 240] the same measures were 700 nM, 2.06 µM, 450 nM and 6.1 µM.
`Cc1cnc2nc(-c3cc(NC(=O)OC(C)C)ccc3Cl)[nH]c2c1` [Compound 216]: the EC50 came to 700 nM in assay [1] (setting [5]), 2.59 µM in assay [2] (axenic amastigotes in vitro), 460 nM in assay [3] (setting [6]) and 2.83 µM in assay [4].
For `Cc1cnc2nc(-c3cc(NC(=O)c4ccccn4)ccc3Cl)[nH]c2c1` [Compound 83] the same measures were 1300 nM, 7 µM, 930 nM and 23.3 µM.
For the molecule `Cc1cnc2nc(-c3cc(NC(=O)c4ccccc4Cl)ccc3Cl)[nH]c2c1` [Compound 149], the EC50 in assay [1] (setting [5]) is 550 nM; in assay [2] (axenic amastigotes in vitro) it was above 25 µM; in assay [3] (setting [6]), 10900 nM; in assay [4], 9.2 µM.
On to `COc1ccc(-c2cnc3nc(-c4cc(NC(=O)c5ccco5)ccc4Cl)[nH]c3c2)cn1` [Compound 29, N-{4-chloro-3-[6-(6-methoxypyridin-3-yl)-1H-imidazo [4,5-b]pyridin-2-yl]phenyl}furan-2-carboxamide], for which the EC50 in assay [1] (setting [5]) stood at 71 nM; in assay [2] (axenic amastigotes in vitro), 0.234 µM; in assay [3] (setting [6]) it was 23.5 nM; in assay [3] (setting [7]), 24 nM; in assay [4] it was 2.29 µM.
With `Cc1cnc2nc(-c3cc(NC(=O)Cc4ccncc4)ccc3Cl)[nH]c2c1` [Compound 148], the EC50 in assay [1] (setting [5]) was above 20000 nM; in assay [2] (axenic amastigotes in vitro), above 25 µM; in assay [3] (setting [6]), above 24600 nM; in assay [4], above 50 µM.
Regarding `Cc1cnc2nc(-c3cc(NC(=O)c4cnc[nH]4)ccc3Cl)[nH]c2c1` [Compound 128], the EC50 is above 20000 nM in assay [1] (setting [5]), above 25 µM in assay [2] (axenic amastigotes in vitro), above 25000 nM in assay [3] (setting [6]) and above 50 µM in assay [4].
For `COc1ccc(C(=O)Nc2ccc(Cl)c(-c3nc4ncc(C)cc4[nH]3)c2)c(OC)c1` [Compound 147] the same measures were 2410 nM, above 25 µM, 3600 nM and 8.8 µM.
As to `Cc1cnc2nc(-c3cc(NC(=O)c4ccc(C)[nH]4)ccc3Cl)[nH]c2c1` [Compound 124], the EC50 in assay [1] (setting [5]) was above 14300 nM; in assay [2] (axenic amastigotes in vitro) it was above 25 µM; in assay [3] (setting [6]) it was above 25000 nM; in assay [4] it was 13.8 µM.
As to `Cc1cnc2nc(-c3cc(NC(=O)CCC(=O)O)ccc3Cl)[nH]c2c1` [Compound 201], the EC50 in assay [1] (setting [5]) is above 20000 nM; in assay [2] (axenic amastigotes in vitro), above 25 µM; in assay [3] (setting [6]), above 10800 nM; in assay [4] it was above 50 µM.
As for `O=C(Nc1ccc(Cl)c(-c2nc3ncc(Br)cc3[nH]2)c1)C1CCCC1` [Compound 374], the EC50 in assay [1] (setting [5]) was 850 nM; in assay [2] (axenic amastigotes in vitro) it was 16.5 µM; in assay [3] (setting [6]), 5100 nM; in assay [4], 5.9 µM.
For `Cc1cnc2nc(-c3cc(NC(=O)N(C)C)ccc3Cl)[nH]c2c1` [Compound 243] the same measures were 2580 nM, 5 µM, 450 nM and 39.6 µM.
As to `CS(=O)(=O)c1ccc(-c2cnc3nc(-c4cc(NC(=O)N5CCCC5)ccc4Cl)[nH]c3c2)cc1` [Compound 297], the EC50 in assay [1] (setting [5]) turned out to be 5300 nM; in assay [2] (axenic amastigotes in vitro), 1.59 µM; in assay [3] (setting [6]), 187 nM; in assay [4], 5.5 µM.
For the molecule `COC(=O)Nc1ccc(-c2cnc3nc(-c4cc(NC(=O)c5ccco5)ccc4Cl)[nH]c3c2)cc1` [Compound 58, methyl N-(4-{2-[2-chloro-5-(furan-2-amido)phenyl]-1H-imidazo[4,5-b]pyridin-6-yl}phenyl)carbamate], the EC50 in assay [1] (setting [5]) was determined as 19.3 nM; in assay [2] (axenic amastigotes in vitro) it was 0.051 µM; in assay [3] (setting [6]) it was 5.1 nM; in assay [3] (setting [7]) it was 5 nM; in assay [4] it was 0.284 µM.
Regarding `O=C(Nc1ccc(Cl)c(-c2nc3ncc(-c4ccc(OCc5ccccc5)cc4)cc3[nH]2)c1)c1ccco1` [Compound 47], the EC50 is 104 nM in assay [1] (setting [5]), 0.46 µM in assay [2] (axenic amastigotes in vitro), 40 nM in assay [3] (setting [6]) and above 7.2 µM in assay [4].
Consider `Cc1cnc2nc(-c3cc(NC(=O)c4nccnc4O)ccc3Cl)[nH]c2c1` [Compound 174], for which the EC50 in assay [1] (setting [5]) was above 20000 nM; in assay [2] (axenic amastigotes in vitro), above 25 µM; in assay [3] (setting [6]) it was above 25000 nM; in assay [4], above 50 µM.
In the case of `Cc1cnc2nc(-c3cc(NC(=O)NCCN(C)C)ccc3Cl)[nH]c2c1` [Example 226, 1-(4-Chloro-3-{6-methyl-1H-imidazo[4,5-b]pyridin-2-yl}phenyl)-3-[2-(dimethylamino)ethyl]urea], the EC50 in assay [1] (TULAHUEN, Fibroblast, read-out: T cruzi EC50) is above 20000 nM; in assay [2], above 25 µM; in assay [3] (48 h, read-out: T. brucei EC50), above 22200 nM; in assay [4], above 50 µM.
For the molecule `Cc1cnc2nc(-c3cc(NC(=O)c4ccc(N5CCOCC5)cn4)ccc3Cl)[nH]c2c1` [Compound 84], the EC50 was 2300 nM in assay [1] (setting [5]), 6.7 µM in assay [2] (axenic amastigotes in vitro), 2130 nM in assay [3] (setting [6]) and above 50 µM in assay [4].
For `O=C1Cc2cc(-c3cnc4nc(-c5cc(NC(=O)C6CCCC6)ccc5Cl)[nH]c4c3)ccc2N1` [Compound 377] the same measures were 2060 nM, 6.6 µM, 580 nM and 5.8 µM.
For `O=C(Cc1cccc(Cl)c1)Nc1ccc(Cl)c(-c2nc3ncc(C(F)(F)F)cc3[nH]2)c1` [Compound 280] the same measures were 3400 nM, 21.2 µM, above 13600 nM and 27.4 µM.
As for `Cc1cnc2nc(-c3cc(NC(=O)C4CCCO4)ccc3Cl)[nH]c2c1` (stereo not drawn) [Compound 138], the EC50 in assay [1] (setting [5]) was above 20000 nM; in assay [2] (axenic amastigotes in vitro), above 25 µM; in assay [3] (setting [6]), above 25000 nM; in assay [4], above 50 µM.
Turning to `CN(C(=O)OC(C)(C)C)c1ccc(-c2cnc3nc(-c4cc(NC(=O)N5CCCC5)ccc4Cl)[nH]c3c2)cc1` [Compound 332, tert-butyl N-[4-(2-{2-chloro-5-[(pyrrolidin-1-yl)carbonylamino]phenyl}-1H-imidazo[4,5-b]pyridin-6-yl)phenyl]-N-methylcarbamate], the EC50 in assay [1] (TULAHUEN, T. cruzi in 3T3 fibroblast cells, 6 day incubation, CPRG absorbance, read-out: EC50) worked out at 6 nM.
